The values below come from BindingDB's records for patent US9796704 (SYMPHONY EVOLUTION, INC., 2017).

Where only a bound is given, the exact number is not on record here.

The term IC50 denotes the concentration that inhibits the measured activity by half. Low readings indicate inhibition by little substance, high ones a need for much substance.

The target in one experiment is Vascular endothelial growth factor receptor 2 (Homo sapiens, UniProt P35968). In words: AlphaScreen Assay.
Chain of Vascular endothelial growth factor receptor 2 (P35968 whole entry): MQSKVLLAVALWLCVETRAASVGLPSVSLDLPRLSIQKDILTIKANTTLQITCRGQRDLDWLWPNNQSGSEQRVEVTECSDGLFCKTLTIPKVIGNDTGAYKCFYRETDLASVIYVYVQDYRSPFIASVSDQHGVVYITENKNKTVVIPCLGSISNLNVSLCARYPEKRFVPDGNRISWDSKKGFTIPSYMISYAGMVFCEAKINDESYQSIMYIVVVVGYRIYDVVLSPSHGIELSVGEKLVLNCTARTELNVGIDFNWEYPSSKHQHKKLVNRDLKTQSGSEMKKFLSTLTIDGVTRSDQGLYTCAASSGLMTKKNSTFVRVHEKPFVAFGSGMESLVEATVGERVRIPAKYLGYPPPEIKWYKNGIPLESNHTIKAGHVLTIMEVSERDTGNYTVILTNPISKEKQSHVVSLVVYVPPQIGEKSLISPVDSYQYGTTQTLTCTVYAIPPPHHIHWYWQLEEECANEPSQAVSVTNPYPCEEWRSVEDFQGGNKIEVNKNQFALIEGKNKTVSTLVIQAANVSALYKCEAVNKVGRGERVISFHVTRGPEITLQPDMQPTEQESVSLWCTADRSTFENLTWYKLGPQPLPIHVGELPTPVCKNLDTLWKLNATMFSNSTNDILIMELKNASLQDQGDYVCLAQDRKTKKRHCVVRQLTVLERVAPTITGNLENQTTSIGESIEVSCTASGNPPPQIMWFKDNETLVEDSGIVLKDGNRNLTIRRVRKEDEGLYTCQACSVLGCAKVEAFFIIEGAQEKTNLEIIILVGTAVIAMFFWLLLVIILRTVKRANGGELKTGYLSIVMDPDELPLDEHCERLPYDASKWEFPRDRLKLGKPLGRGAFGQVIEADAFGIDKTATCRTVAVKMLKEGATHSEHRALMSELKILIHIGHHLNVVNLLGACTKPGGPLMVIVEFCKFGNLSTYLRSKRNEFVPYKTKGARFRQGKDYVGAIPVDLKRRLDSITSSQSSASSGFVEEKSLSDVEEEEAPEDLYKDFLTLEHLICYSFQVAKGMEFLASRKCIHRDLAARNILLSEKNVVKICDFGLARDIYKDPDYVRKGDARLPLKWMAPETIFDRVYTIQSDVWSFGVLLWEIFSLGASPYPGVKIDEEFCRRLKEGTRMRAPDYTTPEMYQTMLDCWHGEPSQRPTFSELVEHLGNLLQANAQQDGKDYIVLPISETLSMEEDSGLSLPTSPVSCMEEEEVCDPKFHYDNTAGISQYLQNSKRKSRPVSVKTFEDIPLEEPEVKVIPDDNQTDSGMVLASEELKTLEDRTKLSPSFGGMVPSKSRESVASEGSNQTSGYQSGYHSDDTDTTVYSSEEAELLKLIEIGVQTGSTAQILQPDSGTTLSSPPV
Procedure: (§1) In AlphaScreen, when the donor and acceptor beads are close in proximity, a series of photochemical events will give rise to a fluorescent signal upon light activation. Here we use biotinylated poly-(Glu, Tyr) 4:1 as the kinase substrate, streptavidin-coated donor beads and anti-phosphortyrosine antibody PY100-coated acceptor beads. […] Compounds, ATP, biotinylated poly-(Glu, Tyr) and kinases are mixed in a volume of 20 μL for 1 hr at ambient temperature using Greiner 384-well white clear bottom medium binding plates. Then 10 uL solution containing 15-30 mg/mL AlphaScreen beads, 75 mM Hepes, pH 7.4, 300 mM NaCl, 120 mM EDTA, 0.3% BSA and 0.03% Tween-20 is added to each well. After 2-16 hr incubation of the beads, plates are read in a Perkin Elmer AlphaQuest reader (available from PerkinElmer Life and Analytical Sciences, Inc., of Boston Mass.).
Consider `COc1cc2c(Nc3cc(Cl)c(Br)cc3F)ncnc2cc1OC[C@H]1CN2CCOCC2CO1` (some centres not stated) [US9796704, Entry 20], for which the IC50 was under 0.05 µM.
`COc1cc2c(Nc3ccc(Cl)c(Cl)c3)ncnc2cc1OCc1nc(N(C)C)no1` [US9796704, Entry 206]: the IC50 result is “in the range around 0.525 µM”.
Still for that read-out and setting: for `COc1cc2c(Nc3ccc(Cl)c(Cl)c3)ncnc2cc1OCc1nc(-c2ccccn2)cs1` [US9796704, Entry 202] the value was “in the range around 0.525 µM”; for `COc1cc2c(Nc3ccc(Br)c(Cl)c3)ncnc2cc1O[C@H]1CO[C@@H]2CCO[C@H]12` [US9796704, Entry 77], “in the range around 0.525 µM”; for `COc1cc2c(Nc3ccc(F)cc3)ncnc2cc1O[C@@H]1CO[C@@H]2[C@H]1OC[C@H]2F` [US9796704, Entry 115], “in the range around 10.5 µM”.
Take `COc1cc2c(Nc3ccc(Cl)c(Cl)c3)ncnc2cc1OCc1nc(-c2cccnc2)cs1` [US9796704, Entry 201]: the IC50 entry is “in the range around 0.525 µM”.
As to `COc1cc2c(Nc3ccc(Cl)c(Cl)c3)ncnc2cc1OCC(=O)N1CCOCC1` [US9796704, Entry 195], the IC50 result is “in the range around 0.525 µM”.
`COc1cc2c(Nc3ccc(Cl)c(Cl)c3)ncnc2cc1OCc1noc(-c2ccc(C(F)(F)F)cc2)n1` [US9796704, Entry 167]: the IC50 result was “in the range around 0.525 µM”.
`COc1cc2c(Nc3cccc(Cl)c3C)ncnc2cc1O[C@H]1CO[C@H]2[C@@H]1OC[C@@H]2OC` [US9796704, Entry 76]: the IC50 result is “in the range around 0.525 µM”.
Still for that read-out and setting: for `COc1cc2c(Nc3ccc(Cl)c(Cl)c3)ncnc2cc1OCc1nc(CN2CCOCC2)cs1` [US9796704, Entry 209] the value was “in the range around 0.525 µM”.
For `CCN1CCCCC1c1nc(COc2cc3ncnc(Nc4ccc(Cl)c(Cl)c4)c3cc2OC)no1` (configuration not stated) [US9796704, Entry 219], the IC50 entry was “in the range around 0.525 µM”.
On to `COc1cc2c(Nc3ccc(Cl)c(Cl)c3)ncnc2cc1OCc1nc(-c2ccc(O)c(C(N)=O)c2)cs1` [US9796704, Entry 200], for which the IC50 result is “in the range around 0.525 µM”.
On to `COc1cc2c(Nc3ccc(Cl)c(Cl)c3)ncnc2cc1OCc1cscn1` [US9796704, Entry 170], for which the 50% inhibitory concentration (IC50) entry is “in the range around 0.525 µM”.
In the case of `COc1cc2c(Nc3ccc(Cl)c(Cl)c3)ncnc2cc1OCc1nc(CN2CCN(C)CC2)cs1` [US9796704, Entry 207], the IC50 result is “in the range around 0.525 µM”.
For the compound `COc1cc2c(Nc3ccc(Cl)c(Cl)c3)ncnc2cc1OCc1csc(C2CCNCC2)n1` [US9796704, Entry 213], the IC50 result is “in the range around 0.525 µM”.
`COc1cc2c(Nc3ccc(Cl)c(Cl)c3)ncnc2cc1OC1CCCC1` [US9796704, Entry 184]: the IC50 entry is “in the range around 0.525 µM”.
As for `COc1cc2c(Nc3ccc(Cl)c(Cl)c3)ncnc2cc1OCC1CC1` [US9796704, Entry 182], the IC50 result is “in the range around 0.525 µM”.
Turning to `CCO[C@H]1CO[C@H]2[C@@H]1OC[C@@H]2Oc1cc2ncnc(Nc3ccc(Br)c(Cl)c3)c2cc1OC` [US9796704, Entry 74], the IC50 entry was “in the range around 0.525 µM”.
Same read-out and setting: for `COc1cc2c(Nc3ccc(Cl)c(Cl)c3)ncnc2cc1OCc1csc(C2CCN(C)CC2)n1` [US9796704, Entry 214] the value was “in the range around 0.525 µM”; for `COc1cc2c(Nc3cccc(Cl)c3F)ncnc2cc1O[C@H]1CO[C@H]2[C@@H]1OC[C@@H]2OC` [US9796704, Entry 71], “in the range around 0.525 µM”.
The same measure, in the same setting: as for `COc1cc2c(Nc3cccc(Br)c3C)ncnc2cc1O[C@H]1CO[C@H]2[C@@H]1OC[C@@H]2OC` [US9796704, Entry 75], the entry is “in the range around 0.525 µM”; as for `COc1cc2c(Nc3ccc(Cl)c(Cl)c3)ncnc2cc1OCc1nc(N2CCN(C(=O)OC(C)(C)C)CC2)no1` [US9796704, Entry 215], “in the range around 0.525 µM”.
Regarding `COc1cc2c(Nc3ccc(Cl)c(Cl)c3)ncnc2cc1OCC1CCCCC1` [US9796704, Entry 186], the IC50 entry is “in the range around 0.525 µM”.
As for `COc1cc2c(Nc3ccc(Cl)c(Cl)c3)ncnc2cc1OCc1nc(N2CCOCC2)no1` [US9796704, Entry 205], the half-inhibitory concentration (IC50) entry was “in the range around 0.525 µM”.
As to `COc1cc2c(Nc3ccc(Cl)c(Cl)c3)ncnc2cc1OCCC1OCCCO1` [US9796704, Entry 189], the IC50 result is “in the range around 0.525 µM”.
Take `COc1cc2c(Nc3ccc(Cl)c(Cl)c3)ncnc2cc1OCCN1CCOCC1` [US9796704, Entry 190]: the half-inhibitory concentration (IC50) entry is “in the range around 0.525 µM”.
`COc1cc2c(Nc3ccc(Cl)c(Cl)c3)ncnc2cc1OCCC1CCCCC1` [US9796704, Entry 185]: the IC50 result was “in the range around 0.525 µM”.
Consider `COc1cc2c(Nc3ccc(Cl)c(Cl)c3)ncnc2cc1OCC1CN(C)CCO1` (configuration not stated) [US9796704, Entry 151], for which the IC50 result is “in the range around 0.525 µM”.
Turning to `COc1cc2c(Nc3ccc(Cl)c(Cl)c3)ncnc2cc1OCCN1CCCC1` [US9796704, Entry 191], the IC50 result is “in the range around 0.525 µM”.
On to `COc1cc2c(Nc3cc(Cl)c(Cl)cc3F)ncnc2cc1OC[C@@H]1CO[C@H]2[C@@H]1OC[C@@H]2OC` [US9796704, Entry 48], for which the IC50 result is “in the range around 10.5 µM”.
With `COc1cc2c(Nc3ccc(Cl)c(Cl)c3)ncnc2cc1OCC1CCCO1` (configuration not stated) [US9796704, Entry 183], the IC50 entry is “in the range around 0.525 µM”.
Regarding `COc1cc2c(Nc3ccc(Cl)c(Cl)c3)ncnc2cc1OCc1nc2c(s1)CNCC2` [US9796704, Entry 208], the IC50 result is “in the range around 0.525 µM”.
Still for that read-out and setting: as for `COc1cc2c(Nc3ccc(Cl)c(Cl)c3)ncnc2cc1OCC1CCC1` [US9796704, Entry 187], the entry is “in the range around 0.525 µM”; as for `COc1cc2c(Nc3ccc(Cl)c(Cl)c3)ncnc2cc1OCCC1OCCO1` [US9796704, Entry 188], “in the range around 0.525 µM”; as for `CCN1CCOC(COc2cc3ncnc(Nc4ccc(Cl)c(Cl)c4)c3cc2OC)C1` (configuration not stated) [US9796704, Entry 212], “in the range around 10.5 µM”.
Still for that read-out and setting: as for `COc1cc2c(Nc3cc(Cl)ccc3Cl)ncnc2cc1O[C@@H]1CO[C@@H]2[C@H]1OC[C@H]2F` [US9796704, Entry 118], the entry is “in the range around 0.525 µM”; as for `COc1cc2c(Nc3ccc(Cl)c(Cl)c3)ncnc2cc1OCCN1CCCCC1` [US9796704, Entry 192], “in the range around 0.525 µM”.

For another experiment, the target named is Ephrin type-A receptor 2 (Homo sapiens, UniProt P29317). In words: AlphaScreen Assay.
Chain of Ephrin type-A receptor 2 (P29317 whole entry): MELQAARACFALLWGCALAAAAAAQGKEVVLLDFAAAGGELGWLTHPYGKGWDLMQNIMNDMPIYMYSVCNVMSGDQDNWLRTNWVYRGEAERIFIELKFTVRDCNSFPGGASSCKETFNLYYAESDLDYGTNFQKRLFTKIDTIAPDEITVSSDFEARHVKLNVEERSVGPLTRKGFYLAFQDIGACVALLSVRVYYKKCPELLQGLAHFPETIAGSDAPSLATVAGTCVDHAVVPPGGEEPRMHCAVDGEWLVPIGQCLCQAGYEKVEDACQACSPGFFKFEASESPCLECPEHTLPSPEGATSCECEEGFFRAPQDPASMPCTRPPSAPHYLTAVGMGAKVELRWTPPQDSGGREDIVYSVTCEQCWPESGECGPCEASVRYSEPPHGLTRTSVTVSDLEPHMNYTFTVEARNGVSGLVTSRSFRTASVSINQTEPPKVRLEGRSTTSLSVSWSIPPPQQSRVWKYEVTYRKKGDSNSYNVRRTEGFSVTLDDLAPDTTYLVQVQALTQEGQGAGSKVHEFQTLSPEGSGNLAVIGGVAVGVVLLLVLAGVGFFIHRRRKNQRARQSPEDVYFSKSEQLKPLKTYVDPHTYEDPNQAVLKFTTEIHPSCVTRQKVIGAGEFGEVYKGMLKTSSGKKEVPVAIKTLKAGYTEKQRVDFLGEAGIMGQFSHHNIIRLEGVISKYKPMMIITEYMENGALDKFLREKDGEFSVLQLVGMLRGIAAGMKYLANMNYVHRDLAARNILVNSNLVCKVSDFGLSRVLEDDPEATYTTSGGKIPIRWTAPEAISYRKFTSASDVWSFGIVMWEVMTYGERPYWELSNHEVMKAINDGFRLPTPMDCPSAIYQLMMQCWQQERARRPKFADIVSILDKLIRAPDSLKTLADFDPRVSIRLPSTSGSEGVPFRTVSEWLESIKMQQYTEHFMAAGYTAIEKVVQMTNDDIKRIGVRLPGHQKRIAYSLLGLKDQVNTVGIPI
Procedure: as §1
For `COc1cc2c(Nc3ccc(Cl)c(Cl)c3)ncnc2cc1OCc1nc(CN2CCN(C)CC2)no1` [US9796704, Entry 140], the IC50 result was “in the range around 0.525 µM”.
Same read-out and setting: as for `COc1cc2c(Nc3ccc(Cl)c(Cl)c3)ncnc2cc1OC[C@H]1CN2CCC[C@@H]2CO1` [US9796704, Entry 31], the figure is under 0.05 µM; as for `COc1cc2c(Nc3cc(F)c(Br)c(Cl)c3)ncnc2cc1O[C@@H]1CO[C@@H]2[C@H]1OC[C@H]2F` [US9796704, Entry 104], “in the range around 0.525 µM”.
For `COc1cc2c(Nc3ccc(Cl)c(Cl)c3)ncnc2cc1OCc1noc(CN(C)C)n1` [US9796704, Entry 138], the IC50 result is “in the range around 0.525 µM”.
Regarding `COc1cc2c(Nc3ccc(Cl)c(Cl)c3)ncnc2cc1OCC1CN(C)CCCO1` (configuration not stated) [US9796704, Entry 155], the concentration for half-maximal inhibition (IC50) result was “in the range around 0.525 µM”.
